# Test results taken from patent US5714488A, “Bis-heteroarylylmethoxyphenyl ketone derivatives as inhibitors of leukotriene biosynthesis” (Abbott Laboratories, priority 1996, dated 1998).
# Where a name gives a salt, the structure may show the parent alone.
# Test system: 5-Lipoxygenase
# Test: Inhibition of calcium ionophore-induced LTB4 formation in human polymorphonuclear leukocytes (PMNL)
# Assay type: cell-based
# Conditions: 15 min preincubation, calcium ionophore 8.3 μM, 10 min at 37° C., LTB4 by enzyme-linked immunoassay or HPLC, read-out: IC50 (In Vitro Inhibitory Potencies Against 5-Lipoxygenase From Stimulated LTB4 Formation in Human Polymorphonuclear Leukocytes)
# Procedure: Inhibition of leukotriene biosynthesis was evaluated in vitro using an assay involving calcium ionophore-induced LTB4 expressed in human polymorphornuclear leukocytes (PMNL). Human PMNL isolated from heparinized (20 USP units/mL) venous blood (25 mL) obtained from healthy volunteers was layered over an equal volume of Ficoll-Hypaque Mono-Poly Resolving Medium (ICN Flow, Costa Mesa, CA) and centrifugated at 400×g for 40 minutes at 20° C. The PMNL was collected, erythrocytes lysed and washed 2× and suspended at 1.0×10^7 cells/mL in Earle's balanced salt solution with 17 mM Earle's HEPES. Aliquots of the cell suspension were preincubated with test compounds dissolved in DMSO (final concentration <2%) for 15 minutes and stimulated with calcium ionophore (final concentration 8.3 μM) for 10 min. at 37° C. Incubations were stopped with the addition of two volumes of ice-cold methanol followed by centrifuging the cell suspensions at 4° C. for 10 minutes at 450×g. The amount of LTB4 in the methanol extract was analyzed by enzyme-linked immunoassay or by HPLC analysis.
row,SMILES,IC50
1,"O=C(O)CON=C(c1ccc(OCc2ccc3ccccc3n2)cc1)c1ccc(OCc2ccc3ccccc3n2)cc1 [Example 1, bis(4-(2-quinolylmethoxy)phenyl)methyloximinoacetic acid]",32 nM
2,"ON=C(c1ccc(OCc2ccc3ccccc3n2)cc1)c1ccc(OCc2ccc3ccccc3n2)cc1 [Example 2, bis(4-(2-quinolylmethoxy)phenyl) ketoxime]",40 nM
3,"O=C(O)CON=C(c1ccc(OCc2ccc3ccc(Cl)cc3n2)cc1)c1ccc(OCc2ccc3ccc(Cl)cc3n2)cc1 [Example 6, bis(4-(7-chloro-2-quinolylmethoxy)phenyl)methyloximinoaceticacid]",220 nM
4,"O=C(O)CON=C(c1ccc(OCc2nc3ccccc3s2)cc1)c1ccc(OCc2nc3ccccc3s2)cc1 [Example 9, bis(4-(2-benzothiazoylmethoxy)-phenyl)methyloximinoacetic acid sodium salt]",40 nM
5,O=C(O)C=C(c1ccc(OCc2ccc3ccccc3n2)cc1)c1ccc(OCc2ccc3ccccc3n2)cc1 [Example 11],50 nM
6,O=C(O)CON=CC=C(c1ccc(OCc2ccc3ccccc3n2)cc1)c1ccc(OCc2ccc3ccccc3n2)cc1 [Example 12],26 nM

# Test system: leukotriene biosynthesis
# Test: In vivo leukotriene inhibition, Ionophore A23187-Induced Rat Pleural Inflammation Model
# Conditions: 3.O mg/kg; male rats; dosed in 0.2% methocel one hour prior to intrapleural A23187 (20 μg); lavage after thirty minutes
# Procedure: Inhibition of leukotriene biosynthesis in vivo was evaluated using the Ionophore A23187-Induced Rat Pleural Inflammation Model. Pleural inflammation was induced in male rats following the method of Rao, et al. (Rao, T. S., Currie, J. L., Shaffer, A. F., Isakson, P. C., Evaluation of 5-lipoxygenase Inhibitors, Zileuton, A-78773 and ICI D-2138 in an Ionophore (A-23187) Induced Pleural Inflammation Model in the Rat, Life Sciences, 53, 147 (1993)). Rats were dosed with experimental compounds in 0.2% methocel one hour prior to the intrapleural injection of the calcium ionophore, A23187. The rats where lightly anesthetized with Pentrane (Abbott Laboratories) and injected intrapleurally with 0.5 ml of 2% ethanol in injectable saline (Abbott Laboratories) containing 20 μg of A23187 (Cal BioChem-Novabiochem). Thirty minutes later the animals were euthanised and the pleural cavities lavaged with ice cold saline (Abbott Laboratories). The lavage fluid was then added to ice cold methanol (final methanol concentration 30%) to lyse cells and precipitate protein. Eicosanoids were determined by enzyme immunoassay by standard methods.
row,SMILES,% Inhibition (In Vivo Leukotriene Inhibition in Rat Pleural Inflammation)
1,O=C(O)CON=CC=C(c1ccc(OCc2ccc3ccccc3n2)cc1)c1ccc(OCc2ccc3ccccc3n2)cc1 [Example 12],60%
